These results are taken from patent US11214540B2, “Compositions for treating neurodegenerative diseases” (COGNITION THERAPEUTICS, INC., priority 2017, dated 2022).

The nature of data set [1]: log P. It is filed as physicochemical. In a few lines: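 Ratio of un-ionized compound concentrations between octanol and water, with aqueous pH set so the un-ionized form predominates. Value given as the log of the octanol/water ratio.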
Data set [2] relates to Abeta oligomer-induced membrane trafficking deficits in primary hippocampal neurons. Description: Membrane Trafficking/Exocytosis (MTT) assay, Abeta oligomer effect on neurons.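 Note: compound potency for inhibiting the Abeta oligomer effect on exocytosis.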 It is filed as cell-based, rat. Conditions: membrane trafficking, read-out: EC50 Abeta. In a few lines:
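Rat E18 hippocampal neurons cultured 3 weeks received compound (100 uM to 0.001 nM), then vehicle or Abeta 1-42 oligomers (3 μM total Abeta), for 1-24 h at 37 °C. MTT was added for 1 h, and formazan vesicle exocytosis was quantified by automated imaging with DAPI toxicity check. Tukey-Kramer comparisons were made with N=4.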

Data set [3] has as its target Sigma-1 receptors on Jurkat cell membranes (Homo sapiens (Human), UniProt Q99720). Description: Competitive Radioligand Binding Assay 1, Sigma-1 binding ([3H](+)pentazocine displacement). Conditions: sigma-1 receptor affinity; read-out: S1 Ki.
Data set [4] in a line: Mouse liver microsome (MLM) stability. The format is in vitro ADME. Conditions: microsomal stability in mouse liver microsomes (MLM).
Method: A first pharmacokinetic study was performed in microsomes of mice mouse liver microsomes, MLM).
Microsomal stability experiments and plasma stability experiments were performed to determine metabolic and hepatic stability of candidate compounds.
Data set [5] has as its target Sigma-2 receptors on membranes from rat cerebral cortex (Rattus norvegicus (Rat), UniProt Q5U3Y7). Description: Competitive Radioligand Binding Assay 1, Sigma-2 binding ([3H]DTG displacement with (+)pentazocine mask). Conditions: sigma-2 receptor affinity; read-out: S2 Ki. In a few lines: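 Displacement of [3H]DTG by test compounds from rat cerebral cortex membranes in presence of 300 nM (+)pentazocine masking sigma-1 sites; 10 μM haloperidol defines non-specific binding. Filtration and scintillation counting; Ki from displacement curves.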

Data set [6] concerns the target potassium channel hERG (Homo sapiens (Human), UniProt Q12809). Description: In vitro testing for hERG inhibition. The format is biochemical. Conditions: in vitro toxicity potassium channel hERG. The protocol:
In vitro testing for hERG inhibition was performed in a standard assay (See: Haverkamp W, Breithardt G, Carnm A J, Janse M J, Rosen M R, Antzelevitch C, Escande D, Franz M, Malik M, Moss A and Shah R. (2000) Eur Heat J 21 (15); 1216-31).
In general terms: hERG is a cardiac potassium channel; its block is linked to QT prolongation.

Where two headings read alike, the source gives them in different places.

Sequence of potassium channel hERG (Q12809 whole entry): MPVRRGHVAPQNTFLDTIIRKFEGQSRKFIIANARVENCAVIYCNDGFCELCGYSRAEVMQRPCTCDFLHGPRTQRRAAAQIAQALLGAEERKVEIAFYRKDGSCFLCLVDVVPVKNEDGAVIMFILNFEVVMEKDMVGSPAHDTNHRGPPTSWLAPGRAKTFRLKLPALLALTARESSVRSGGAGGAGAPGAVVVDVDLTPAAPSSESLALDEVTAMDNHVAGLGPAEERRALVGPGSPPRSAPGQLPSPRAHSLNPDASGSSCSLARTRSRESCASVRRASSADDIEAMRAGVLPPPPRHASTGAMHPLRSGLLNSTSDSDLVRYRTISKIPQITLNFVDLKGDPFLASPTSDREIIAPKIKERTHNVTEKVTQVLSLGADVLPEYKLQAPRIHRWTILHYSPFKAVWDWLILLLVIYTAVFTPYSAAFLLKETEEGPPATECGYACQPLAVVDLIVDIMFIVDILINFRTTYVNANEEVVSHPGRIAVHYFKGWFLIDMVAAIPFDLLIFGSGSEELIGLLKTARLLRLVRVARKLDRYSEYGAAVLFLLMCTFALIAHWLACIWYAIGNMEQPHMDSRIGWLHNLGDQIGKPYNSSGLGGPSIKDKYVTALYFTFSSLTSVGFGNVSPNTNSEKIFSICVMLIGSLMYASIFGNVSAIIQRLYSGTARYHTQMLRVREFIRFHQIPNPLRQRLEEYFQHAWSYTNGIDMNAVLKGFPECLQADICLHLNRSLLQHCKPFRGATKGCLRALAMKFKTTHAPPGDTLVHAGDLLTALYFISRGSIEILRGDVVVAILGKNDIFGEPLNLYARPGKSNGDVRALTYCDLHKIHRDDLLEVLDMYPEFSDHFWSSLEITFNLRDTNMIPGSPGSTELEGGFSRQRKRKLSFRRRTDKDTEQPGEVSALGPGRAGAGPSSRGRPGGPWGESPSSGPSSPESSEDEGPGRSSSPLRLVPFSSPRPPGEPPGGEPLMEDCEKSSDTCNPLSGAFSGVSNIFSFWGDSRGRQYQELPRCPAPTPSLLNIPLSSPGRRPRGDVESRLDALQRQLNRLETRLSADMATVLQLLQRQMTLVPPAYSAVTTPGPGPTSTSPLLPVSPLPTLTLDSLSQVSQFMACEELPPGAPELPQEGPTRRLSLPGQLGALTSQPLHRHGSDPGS
Sequence of Sigma-2 receptors on membranes from rat cerebral cortex (Q5U3Y7 whole entry): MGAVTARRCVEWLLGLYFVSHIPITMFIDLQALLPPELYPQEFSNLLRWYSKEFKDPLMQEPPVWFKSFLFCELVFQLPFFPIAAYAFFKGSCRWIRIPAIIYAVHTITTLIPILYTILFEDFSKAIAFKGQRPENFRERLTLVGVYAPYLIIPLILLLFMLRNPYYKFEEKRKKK
Sequence of Sigma-1 receptors on Jurkat cell membranes (Q99720 whole entry): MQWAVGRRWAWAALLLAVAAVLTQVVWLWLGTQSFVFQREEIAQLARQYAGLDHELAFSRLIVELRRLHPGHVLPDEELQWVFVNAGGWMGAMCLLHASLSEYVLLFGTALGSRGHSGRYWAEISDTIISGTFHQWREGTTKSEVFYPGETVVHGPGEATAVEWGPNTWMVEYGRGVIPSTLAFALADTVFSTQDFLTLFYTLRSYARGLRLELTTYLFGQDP

What is called log P is the decadic logarithm of the partition coefficient of the neutral form, usually between octanol and water. A high value points to a more lipophilic compound. Usually EC50 stands for the concentration giving half of the maximal effect. The term Ki denotes the dissociation constant of the complex between target and ligand, obtained from inhibition or displacement. A word on the IC50: it is the concentration needed to halve the response being measured. A higher IC50 goes with lower potency. With `CC(C)=CC(CC(C)(C)c1ccc(Cl)cc1)N1CCC(C2CCN(C)CC2)CC1` (stereo not drawn) [Compound 43], the “log P” value in data set [1] is recorded as 6.37. Besides, in data set [2], the EC50 was determined as 300 nM. The Ki in data set [3] stood at 61 nM; in data set [5], 74 nM. In addition, the “MLM T1/2” value in data set [4] amounted to 29 min. The compound also showed an IC50 in data set [6] of 4900 nM.

With `CC(C)=CC(CC(C)(C)c1ccc(Cl)cc1)N1CCC(CCO)CC1` (stereo not drawn) [Compound 53], the “log P” value in data set [1] is recorded as 5.41. Further, in data set [2], the EC50 was 20000 nM. Besides, the Ki in data set [3] amounted to 74 nM; in data set [5] it was 110 nM. Besides, the “MLM T1/2” value in data set [4] turned out to be 28 min. Besides, in data set [6], the midpoint of inhibition, the IC50, lay at 13300 nM.

As for `CC(C)=CC(CC(C)(C)c1ccc(Cl)cc1)N1CCC(F)CC1` (stereo not drawn) [Compound 55], the “log P” value in data set [1] turned out to be 5.47. In addition, the EC50 in data set [2] worked out at 2500 nM. Also, the Ki turned out to be 25 nM in data set [3] and 120 nM in data set [5]. For the same compound, the “MLM T1/2” value in data set [4] was determined as 3.6 min. The same compound yielded an IC50 in data set [6] of 7200 nM.

For the compound `CC(C)=CC(CC(C)(C)c1ccc(F)cc1)N1CCC(CCO)CC1` (stereo not drawn) [Compound 58], in data set [1], the “log P” value amounted to 4.94. In data set [2], the EC50 stood at 500 nM. In addition, the Ki in data set [3] turned out to be 64 nM; in data set [5], 160 nM. For the same compound, the “MLM T1/2” value in data set [4] stood at 39 min. In data set [6], this compound yielded an IC50 of 14000 nM.

Consider `CC(C)=CC(CC(C)(C)c1ccc(C(F)(F)F)cc1)N1CCCCC1` (stereo not drawn) [Compound 61], for which, in data set [1], the “log P” value turned out to be 6.38. For the same compound, in data set [2], the EC50 is 4700 nM. Further, the Ki in data set [3] was 160 nM; in data set [5] it was 230 nM. For the same compound, in data set [4], the “MLM T1/2” value came to 53 min. This compound also registered an IC50 in data set [6] of 7300 nM.

Take `CC(C)=CC(CC(C)(C)c1ccc(F)cc1)N1CCC(C)(O)CC1` (stereo not drawn) [Compound 62]: the “log P” value in data set [1] was found to be 4.4. In addition, the EC50 in data set [2] was 800 nM. Further, the Ki in data set [3] turned out to be 130 nM; in data set [5], 230 nM. In addition, the “MLM T1/2” value in data set [4] was 60 min. The compound also registered an IC50 in data set [6] of 41000 nM.

For `CC(C)=CC(CC(C)(C)c1ccc(F)cc1)N1CCCCC1` (stereo not drawn) [Compound 68], in data set [1], the “log P” value was 5.65. The EC50 in data set [2] worked out at 20000 nM. The Ki in data set [3] is 500 nM; in data set [5], 300 nM. The “MLM T1/2” value in data set [4] came to 11 min. This compound yielded an IC50 in data set [6] of 27000 nM.

Regarding `CC(C)=CC(CC(C)(C)c1ccc(C(F)(F)F)cc1)N1CCC(C(F)(F)F)CC1` (stereo not drawn) [Compound 70], in data set [1], the log partition coefficient (log P) was 6.95. For the same compound, in data set [2], the EC50 was 20000 nM. The Ki is 33 nM in data set [3] and 340 nM in data set [5]. Besides, the “MLM T1/2” value in data set [4] amounted to 14 min. The compound also showed an IC50 in data set [6] of 16300 nM.

On to `CC(C)=CC(CC(C)(C)c1ccc(C(F)(F)F)cc1)N1CCOCC1` (stereo not drawn) [Compound 72], for which the “log P” value in data set [1] turned out to be 5.32. For the same compound, the EC50 in data set [2] stood at 20000 nM. Besides, the Ki in data set [3] worked out at 770 nM; in data set [5], 400 nM. In addition, the “MLM T1/2” value in data set [4] amounted to 2.1 min. The compound further yielded an IC50 in data set [6] of 80000 nM.

`CC(C)=CC(CC(C)(C)c1ccc(Cl)cc1)N1CCC(C)(O)CC1` (stereo not drawn) [Compound 73]: in data set [1], the “log P” value is listed as 4.86. The EC50 in data set [2] came out at 700 nM. In addition, the Ki in data set [3] is 29 nM; in data set [5] it was 410 nM. Besides, in data set [4], the “MLM T1/2” value stood at 87 min. This compound came in with a concentration for half-maximal inhibition (IC50) in data set [6] of 24000 nM.

On to `CC(C)=CC(CC(C)(C)c1ccc(Cl)cc1)N1CCC(O)CC1` (stereo not drawn) [Compound 77], for which the “log P” value in data set [1] stood at 4.58. For the same compound, the EC50 in data set [2] amounted to 20000 nM. Moreover, the Ki stood at 540 nM in data set [3] and 800 nM in data set [5]. Moreover, in data set [4], the “MLM T1/2” value amounted to 44 min. Besides, half-maximal inhibition in data set [6] (IC50) was put at 15200 nM.

Regarding `CC(C)=CC(CC(C)(C)c1ccc(F)cc1)N1CCC(O)CC1` (stereo not drawn) [Compound 79], in data set [1], the “log P” value was found to be 4.12. In addition, in data set [2], the EC50 was determined as 1900 nM. Further, the Ki came out at 1200 nM in data set [3] and 940 nM in data set [5]. For the same compound, the “MLM T1/2” value in data set [4] stood at 74 min. Further, the IC50 in data set [6] was 29000 nM.

With `CC(C)=CC(CC(C)(C)c1ccc(S(C)(=O)=O)cc1)N1CCC2(CCOCC2)CC1` (stereo not drawn) [Compound 82], the “log P” value in data set [1] is 4.11. In addition, the EC50 in data set [2] was found to be 20000 nM. Moreover, the Ki in data set [3] is 380 nM; in data set [5], 2800 nM. In addition, the “MLM T1/2” value in data set [4] worked out at 60 min. Moreover, in data set [6], half-maximal inhibition (IC50) required 100000 nM.

What is called logP is the decadic logarithm of the partition coefficient of the neutral form, usually between octanol and water. Read a low logP as a more hydrophilic compound. Consider `CC(C)=CC(CC(C)(C)c1ccc(C(F)(F)F)cc1)N1CCC(C2CCOCC2)CC1` (stereo not drawn) [Example 9], for which, in data set [1] (octanol/water), the logP is 6.58. The EC50 in data set [2] (Rattus norvegicus, Hippocampal neuron) amounted to 500 nM. The values for the Ki in data set [3] and in data set [5] were 13 nM and 1.8 nM, respectively. Also, the half-life in data set [4] (read-out: MLM T1/2) is 114 min. Inhibition in data set [6] was half-maximal at 1000 nM (IC50).
